The structures appear in SMILES notation.

The subject of this assay is ZR-75-1 tumor. Kind of assay: ZR-75-1 subQ CDX model. It counts as in vivo. Conditions: female BALB/c nude mice, 50 mg/kg, PO, QW, FIG. 14. The method, then:
Female BALB/c nude mice were inoculated with estrogen tablets (0.36 mg/pellet, 60 days to release) 48 hours before cell inoculation. The xenograft model was established by implantation of […] of ZR-75-1 tumor cell suspension (5×10^6 cells/mouse, with 50% Matrigel) subcutaneously into the right subaxillary of female BALB/c nude mice aged 6-8 weeks. When the average tumor volume reached 153.10 mm^3, the tumor-bearing mice were randomized into treatment groups. The groups were treated as follows: Group 1: vehicle, PO, QW; Group 2: Tamoxifen 10 mg/kg, PO, QD; Group 3: Compound I-11 50 mg/kg, PO, QW.
Cell culture: The ZR-75-1 (breast, ductal carcinoma) cell was purchased from (ATCC® CRL-1500™). The base medium for this cell line ATCC-formulated RPMI-1640 Medium. To make the complete growth medium, the base medium was supplemented with 10% heat inactivated FBS and 1% PS, maintained at 37° C. in an atmosphere containing 5% CO2 in air. The tumor cells were routinely subcultured at a ratio of 1:1.5 to 1:3 every 3-6 days. Cell concentration at harvest time was 5.39×10^7 cells/mL and cell viability was 94.3% before inoculation.
Tumor inoculation: BALB/c nude mice were used in this study. Each mouse was inoculated with estrogen tablets 48 hours before cell inoculation (0.3 mg/pellet, 60 days to release). […]

Take `CC(C)Cc1sc(Nc2ncc(-c3cccs3)cc2C(=O)O)nc1C(C)(C)C` [Compound I-11]: the tumor size growth result is “reduced tumor size growth”.

Values taken from patent US20240208961A1, “EIF4E INHIBITORS AND USES THEREOF” (PIC Therapeutics, Inc., priority 2022, published 2024).
